Measured values from PubChem BioAssay (NCI).
Several values for one entry are separate records, joined by “and”; a condition that tells them apart may be missing. Identical values can stand only once.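 How tested: cells in 96-well plates exposed to compound for 48 hours at five concentrations. GI50 is the concentration that inhibits growth by half. The concentration for full growth arrest is given as TGI.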

Experiments:
Experiment in all cases: DTP human tumour cell line panel, 48 h
[1] = test system: CCRF-CEM leukemia
[2] = test system: SR leukemia
[3] = test system: TK-10 renal
[4] = test system: UACC-62 melanoma
[5] = test system: HS 578T breast
[6] = test system: KM12 colon
[7] = test system: SK-OV-3 ovarian
[8] = test system: MOLT-4 leukemia
[9] = test system: EKVX NSCLC
[10] = test system: MDA-MB-435
[11] = test system: SK-MEL-28 melanoma
[12] = test system: RPMI-8226 leukemia
[13] = test system: NCI-H226 lung
[14] = test system: UACC-257 melanoma
[15] = test system: OVCAR-5 ovarian
[16] = test system: BT-549 breast

`C=Cc1c(C)c(OC)cc2c1Oc1ccc(OC)c(C)c1CC2` gave a TGI [1] of over 100 µM, a TGI [2] of over 100 µM and a TGI [3] of over 100 µM. It also gave a TGI [4] of over 100 µM, a TGI [5] of over 100 µM and a TGI [6] of over 100 µM. For the same molecule, the TGI [7] was over 100 µM, the TGI [8] was over 100 µM and the TGI [9] was over 100 µM. For the same molecule, the TGI [10] was over 100 µM, the TGI [11] was over 100 µM and the TGI [12] was over 100 µM. For the same molecule, the TGI [13] was over 100 µM, the TGI [14] was over 100 µM and the TGI [15] was over 100 µM.
`NNC(=O)c1ccc(-n2nnc(C(=O)NN)c2C(=O)NN)cc1` was tested, and the TGI [1] was over 100 µM, the TGI [2] was over 100 µM and the TGI [3] was over 100 µM. It also gave a TGI [6] of over 100 µM, a TGI [8] of over 100 µM and a TGI [9] of over 100 µM. The TGI [10] was over 100 µM, the TGI [11] was over 100 µM and the TGI [12] was over 100 µM. It also gave a TGI [16] of over 100 µM, a TGI [14] of over 100 µM and a TGI [15] of over 100 µM.
`CN(CCO)c1nc2c(c(=O)[nH]1)CCC2` was tested, and the TGI [1] was over 100 µM, the TGI [2] was over 100 µM and the TGI [3] was over 100 µM. It also gave a TGI [4] of over 100 µM, a TGI [6] of over 100 µM and a TGI [7] of over 100 µM. The TGI [8] was over 100 µM, the TGI [9] was over 100 µM and the TGI [11] was over 100 µM. It also gave a TGI [12] of over 100 µM, a TGI [13] of over 100 µM and a TGI [14] of over 100 µM. It also gave a TGI [15] of over 100 µM.
Work on `O=C(c1ccccc1)c1ccc(COc2ccc(C(c3c(O)c4ccccc4oc3=O)c3c(O)c4ccccc4oc3=O)cc2)cc1` yielded a TGI [1] of 16.4 µM, a TGI [2] of 63.9 µM and a TGI [3] of 32.8 µM. For the same molecule, the TGI [4] was 30 µM, the TGI [5] was over 100 µM and the TGI [6] was 29.6 µM. The TGI [7] was 35.4 µM, the TGI [8] was 45.4 µM and the TGI [9] was 40 µM. The TGI [10] was 46.8 µM, the TGI [11] was 47.4 µM and the TGI [12] was 38.4 µM. For the same molecule, the TGI [13] was 31 µM, the TGI [14] was 38.7 µM and the TGI [15] was 38.9 µM.
`COc1cc2cc(C(=O)N3CC(CCl)c4ccc(O)cc43)[nH]c2c(OC)c1OC` (configuration not stated) showed a TGI [1] of over 100 µM, a TGI [2] of over 100 µM and a TGI [3] of 22.4 µM. It also gave a TGI [4] of 0.00683 µM, a TGI [5] of 0.0588 µM and a TGI [6] of 0.0273 µM. For the same molecule, the GI50 [9] was 0.285 µM, the TGI [9] was 0.35 µM and 0.749 µM and the TGI [10] was 0.0158 µM. For the same molecule, the TGI [11] was 0.00601 µM, the GI50 [13] was 0.116 µM and the TGI [13] was 0.0566 µM and 0.471 µM. For the same molecule, the TGI [15] was 0.765 µM.
`CCOC(=O)c1c(N2CCCC2)nsc1Nc1ccccc1` showed a TGI [1] of over 100 µM, a TGI [2] of over 100 µM and a TGI [3] of over 100 µM. It also gave a TGI [5] of over 100 µM, a TGI [6] of over 100 µM and a TGI [8] of over 100 µM. It also gave a TGI [9] of over 100 µM, a TGI [11] of over 100 µM and a TGI [12] of over 100 µM. The TGI [13] was over 100 µM, the TGI [14] was over 100 µM and the TGI [15] was over 100 µM.
With `CCC(NC(C)c1ccccc1)C(O)c1ccc(OCc2ccccc2)c(OCc2ccccc2)c1` (configuration not stated) the TGI [1] was 38.7 µM, the TGI [2] was 5.58 µM and the TGI [3] was 32.4 µM. It also gave a TGI [4] of 33.7 µM, a TGI [5] of 46.9 µM and a TGI [6] of 18 µM. It also gave a TGI [7] of 32.4 µM, a TGI [8] of 33.4 µM and a TGI [9] of 31.2 µM. The TGI [10] was 26.7 µM, the TGI [11] was 36 µM and the TGI [12] was 10.7 µM. It also gave a TGI [13] of 36.3 µM, a TGI [14] of 13.8 µM and a TGI [15] of 26.3 µM.
In the case of `CSCC1CC(c2ccc(Cl)cc2)=NO1` (configuration not stated), the TGI [1] was over 100 µM, the TGI [2] was over 100 µM and the TGI [3] was over 100 µM. For the same molecule, the TGI [4] was over 100 µM, the TGI [6] was over 100 µM and the TGI [7] was over 100 µM. The TGI [8] was over 100 µM, the TGI [9] was over 100 µM and the TGI [11] was over 100 µM. For the same molecule, the TGI [12] was over 100 µM, the TGI [13] was over 100 µM and the TGI [14] was over 100 µM. It also gave a TGI [15] of over 100 µM.
Molecule `N#Cc1c(N)oc(-c2cccc([N+](=O)[O-])c2)c1C#N` has a TGI [1] of over 100 µM, a TGI [2] of over 100 µM and a TGI [3] of 49.7 µM. For the same molecule, the TGI [4] was over 100 µM, the TGI [5] was over 100 µM and the TGI [7] was over 100 µM. It also gave a TGI [9] of over 100 µM, a TGI [10] of over 100 µM and a TGI [11] of 39.5 µM. It also gave a TGI [12] of 59.8 µM, a TGI [13] of over 100 µM and a TGI [14] of 48.9 µM. For the same molecule, the TGI [15] was over 100 µM.
`CC1CC[C@@H](C(C)C)[C@H](Oc2nnc(C3OC(CO)C(O)C3O)o2)C1` (some centres not stated) gave a TGI [1] of over 100 µM, a TGI [3] of over 100 µM and a TGI [4] of over 100 µM. The TGI [6] was over 100 µM, the TGI [7] was over 100 µM and the TGI [8] was over 100 µM. It also gave a TGI [9] of over 100 µM, a TGI [10] of over 100 µM and a TGI [12] of over 100 µM. For the same molecule, the TGI [13] was over 100 µM, the TGI [16] was over 100 µM and the TGI [14] was over 100 µM. For the same molecule, the TGI [15] was over 100 µM.
Molecule `CCOC(=O)c1sc2c(c1OC(=O)c1cccs1)c(=O)n(-c1ccccc1)c(=S)n2-c1ccccc1` has a TGI [1] of 36 µM, a TGI [3] of over 100 µM and a TGI [4] of 33.4 µM. It also gave a TGI [5] of 83 µM, a TGI [6] of 42.3 µM and a TGI [7] of 42.9 µM. For the same molecule, the TGI [8] was 40 µM, the TGI [9] was 79.5 µM and the TGI [10] was 29.2 µM. The TGI [11] was 35.4 µM, the TGI [12] was 31.3 µM and the TGI [13] was 48.7 µM. For the same molecule, the TGI [14] was over 100 µM and the TGI [15] was 50.7 µM.
`Cn1c(/C=C(\O)c2ccc(Cl)cc2)nc2ccccc21` gave a TGI [1] of over 100 µM, a TGI [2] of over 100 µM and a TGI [4] of over 100 µM. The TGI [6] was over 100 µM, the TGI [8] was over 100 µM and the TGI [9] was 84.8 µM. The TGI [11] was over 100 µM, the TGI [12] was over 100 µM and the TGI [13] was over 100 µM. For the same molecule, the TGI [14] was 67.1 µM and the TGI [15] was 67.7 µM.
`O=C(Cn1c2c(c3ccccc31)CCCC2)NC1CCCCC1` gave a TGI [1] of over 100 µM, a TGI [3] of over 100 µM and a TGI [4] of over 100 µM. For the same molecule, the TGI [5] was over 100 µM, the TGI [7] was over 100 µM and the TGI [9] was over 100 µM. It also gave a TGI [10] of over 100 µM, a TGI [11] of over 100 µM and a TGI [12] of over 100 µM. The TGI [16] was over 100 µM, the TGI [14] was over 100 µM and the TGI [15] was over 100 µM.
`CCOC(=O)c1nc2ccc([N+](=O)[O-])cc2c2c1CCO2` was tested, and the TGI [1] was over 100 µM, the TGI [3] was over 100 µM and the TGI [4] was over 100 µM. The TGI [6] was over 100 µM, the TGI [7] was over 100 µM and the TGI [8] was over 100 µM. It also gave a TGI [9] of over 100 µM, a TGI [11] of over 100 µM and a TGI [13] of over 100 µM. The TGI [14] was over 100 µM and the TGI [15] was over 100 µM.
Work on `COc1ccc(NC(=O)C/C(C)=N\N=C(N)N)c([N+](=O)[O-])c1` yielded a TGI [1] of over 100 µM, a TGI [2] of 48.8 µM and a TGI [3] of over 100 µM. It also gave a TGI [4] of over 100 µM, a TGI [6] of over 100 µM and a TGI [7] of over 100 µM. For the same molecule, the TGI [8] was over 100 µM, the TGI [9] was over 100 µM and the TGI [11] was over 100 µM. For the same molecule, the TGI [12] was over 100 µM, the TGI [13] was over 100 µM and the TGI [14] was over 100 µM. The TGI [15] was over 100 µM.
`COC(=O)C1CC2(CCC1=O)Cc1ccccc1C2=O` (configuration not stated) gave a TGI [1] of over 100 µM, a TGI [2] of over 100 µM and a TGI [3] of over 100 µM. It also gave a TGI [4] of over 100 µM, a TGI [5] of over 100 µM and a TGI [6] of over 100 µM. The TGI [7] was over 100 µM, the TGI [8] was over 100 µM and the TGI [9] was over 100 µM. The TGI [11] was over 100 µM, the TGI [12] was over 100 µM and the TGI [13] was over 100 µM. The TGI [16] was over 100 µM, the TGI [14] was over 100 µM and the TGI [15] was over 100 µM.
Molecule `CC(=O)C1=CSC2[C@H](NC(=O)Cc3ccccc3)C(=O)N2C1C(=O)OC(c1ccccc1)c1ccccc1` (some centres not stated) has a TGI [1] of 68.2 µM, a TGI [2] of over 100 µM and a TGI [3] of over 100 µM. The TGI [4] was over 100 µM, the TGI [6] was over 100 µM and the TGI [7] was over 100 µM. It also gave a TGI [8] of over 100 µM, a TGI [9] of over 100 µM and a TGI [11] of over 100 µM. For the same molecule, the TGI [12] was over 100 µM, the TGI [13] was over 100 µM and the TGI [14] was over 100 µM.
